Data: publication PMC10829302 (BMC Microbiology, 2024)
pIC50: −log10 of the molar value.

Target: T1, tubulin (α/β heterodimer; β-tubulin) (Sus scrofa, UniProt P02554)
T1 construct: heterodimer of two closely related 55 kDa proteins (α and β tubulins), isolated from Porcine brain tissue; with α-tubulin
Test: tubulin polymerization assay with purified porcine brain tubulin (Cytoskeleton BK011P), positive control
Type: biochemical

T1 sequence (P02554 whole entry): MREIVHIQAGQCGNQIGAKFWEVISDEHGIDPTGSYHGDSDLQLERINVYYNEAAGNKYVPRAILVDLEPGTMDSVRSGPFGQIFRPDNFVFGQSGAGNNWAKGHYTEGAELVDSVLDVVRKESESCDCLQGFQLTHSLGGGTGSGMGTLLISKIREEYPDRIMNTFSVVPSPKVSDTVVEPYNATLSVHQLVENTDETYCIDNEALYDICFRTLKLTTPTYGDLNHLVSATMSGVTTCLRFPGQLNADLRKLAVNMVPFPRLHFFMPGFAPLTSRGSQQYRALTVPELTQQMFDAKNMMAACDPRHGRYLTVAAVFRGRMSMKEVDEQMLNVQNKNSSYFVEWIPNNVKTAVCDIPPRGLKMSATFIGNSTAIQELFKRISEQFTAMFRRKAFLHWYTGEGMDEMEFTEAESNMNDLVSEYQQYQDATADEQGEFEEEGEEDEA
T1 sequence (P02550 whole entry partner): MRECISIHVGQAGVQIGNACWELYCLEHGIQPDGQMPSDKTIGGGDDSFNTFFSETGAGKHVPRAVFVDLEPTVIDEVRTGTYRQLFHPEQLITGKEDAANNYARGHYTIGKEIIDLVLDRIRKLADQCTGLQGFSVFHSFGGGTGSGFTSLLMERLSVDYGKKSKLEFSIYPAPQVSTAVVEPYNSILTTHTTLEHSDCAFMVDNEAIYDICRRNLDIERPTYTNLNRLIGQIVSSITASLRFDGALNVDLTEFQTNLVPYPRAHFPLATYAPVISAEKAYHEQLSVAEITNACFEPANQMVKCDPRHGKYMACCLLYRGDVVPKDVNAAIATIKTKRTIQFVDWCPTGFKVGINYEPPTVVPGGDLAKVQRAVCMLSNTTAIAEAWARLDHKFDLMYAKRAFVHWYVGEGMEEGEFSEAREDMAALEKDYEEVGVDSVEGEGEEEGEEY

## CC(=O)O[C@H]1C(=O)[C@@]2(C)[C@H]([C@H](OC(=O)c3ccccc3)[C@]3(O)C[C@H](OC(=O)[C@H](O)[C@@H](NC(=O)c4ccccc4)c4ccccc4)C(C)=C1C3(C)C)[C@]1(OC(C)=O)CO[C@@H]1C[C@@H]2O [Paclitaxel]
  pIC50: 5.63
